For assay [1], the system named is bovine nasal cartilage explants. In words: Proteoglycan degradation in bovine nasal cartilage explants, basal and TNF alpha stimulated; assay for sulfated glycosaminoglycans. Type of assay: cell-based. The note with it: EGCg 22 μM, 5 days culture, with or without recombinant human tumor necrosis factor alpha 3 nM. How it is done:
See, Haqqi, et al., Proc. Natl. Acad. Sci., USA, 96:4524-29 (1999). […] Id. In an experiment, purified EGCg, from Sigma Chemical Supply, St. Louis, Mo., was placed with bovine nasal cartilage explants at a concentration of22 μM. This mixture was cultured for 5 days in the presence or absence of the pro-inflammatory cytokine, recombinant human tumor necrosis factor alpha at 3 nM. The inhibition of both the basal and stimulated protcoglycan degradation by EGCg was measured using a calorimetric assay for sulfated glycosaminoglycans. See, Farndale, et al., Biochem. Biophys. Acta, 4:883 (1986).

The next assay deals with cartilage degradation. To be noted: mammals; cited from earlier work.

Consider one substance from patent US6428817B1, “Companion animal therapeutic treat” (priority 2001, dated 2002).

In the case of epigallocatechin-3-gallate [EGCg], the “inhibition of basal and stimulated proteoglycan degradation (cartilage breakdown)” value in assay [1] is recorded as “potent inhibitor of cartilage breakdown”. In the assay with cartilage degradation, the “inhibition of cartilage degradation” value was “inhibitor of cartilage degradation”.
